Test results: patent US20260262643A1, “HERBICIDAL BENZOXAZINES” (FMC CORPORATION, priority 2022, published 2026)

Assays:
[1] = test system: pigweed, palmer; assay: Test C preemergence; format: in vivo, Amaranthus palmeri; details: 0 to 100 scale (0 no effect, 100 complete control)
Procedure, shortened: (§1)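 Seeds in loam–sand blend received preemergence directed soil spray of test chemicals in non-phytotoxic solvent with surfactant; postemergence treatment was applied at one- to two-leaf stage (2–10 cm). After 10 days in greenhouse, injury rated visually versus untreated controls, 0 (no effect) to 100 (complete control).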

[2] = test system: barnyardgrass; assay: Test C preemergence; format: in vivo, Echinochloa crusgalli; details: 0 to 100 scale (0 no effect, 100 complete control)
Procedure, shortened: as §1

[3] = test system: rice; assay: Test D flooded paddy test; format: in vivo, Oryza sativa; details: 250 g ai/ha, applied to paddy water, visual rating after 13 to 14 days, scale 0 to 100 (0 no effect, 100 complete control)
Procedure, shortened: (§2)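 Plants grown to the 2-leaf stage; pots flooded to 3 cm above soil at treatment and held at that depth throughout. Test compounds applied directly to the paddy water. After 13 to 14 days in a greenhouse, response was rated visually versus controls on a 0 (no effect) to 100 (complete control) scale.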

[4] = test system: oat, wild; assay: Test C postemergence; format: in vivo, Avena fatua; details: 10 days
Procedure, shortened: as §1

[5] = test system: wheat; assay: Test C preemergence; format: in vivo, Triticum aestivum; details: 0 to 100 scale (0 no effect, 100 complete control)
Procedure, shortened: as §1

[6] = test system: galium; assay: Test C postemergence; format: in vivo, Galium aparine; details: 10 days
Procedure, shortened: as §1

[7] = test system: pigweed, palmer; assay: Test C postemergence; format: in vivo, Amaranthus palmeri; details: 10 days
Procedure, shortened: as §1

[8] = test system: green foxtail; assay: Test C preemergence; format: in vivo, Setaria viridis; details: 0 to 100 scale (0 no effect, 100 complete control)
Procedure, shortened: as §1

[9] = test system: blackgrass; assay: Test C preemergence; format: in vivo, Alopecurus myosuroides; details: 0 to 100 scale (0 no effect, 100 complete control)
Procedure, shortened: as §1

[10] = test system: soybean; assay: Test C preemergence; format: in vivo, Glycine max; details: 0 to 100 scale (0 no effect, 100 complete control)
Procedure, shortened: as §1

[11] = test system: soybean; assay: Test C postemergence; format: in vivo, Glycine max; details: 10 days
Procedure, shortened: as §1

[12] = test system: blackgrass; assay: Test C postemergence; format: in vivo, Alopecurus myosuroides; details: 10 days
Procedure, shortened: as §1

[13] = test system: barnyardgrass; assay: Test D flooded paddy test; format: in vivo, Echinochloa crus-galli; details: 250 g ai/ha, applied to paddy water, visual rating after 13 to 14 days, scale 0 to 100 (0 no effect, 100 complete control)
Procedure, shortened: as §2

[14] = test system: sedge, umbrella; assay: Test D flooded paddy test; format: in vivo, Cyperus difformis; details: 250 g ai/ha, applied to paddy water, visual rating after 13 to 14 days, scale 0 to 100 (0 no effect, 100 complete control)
Procedure, shortened: as §2

[15] = test system: oat, wild; assay: Test C preemergence; format: in vivo, Avena fatua; details: 0 to 100 scale (0 no effect, 100 complete control)
Procedure, shortened: as §1

[16] = test system: green foxtail; assay: Test C postemergence; format: in vivo, Setaria viridis; details: 10 days
Procedure, shortened: as §1

[17] = test system: kochia; assay: Test C postemergence; format: in vivo, Bassia scoparia; details: 10 days
Procedure, shortened: as §1

[18] = test system: kochia; assay: Test C preemergence; format: in vivo, Bassia scoparia; details: 0 to 100 scale (0 no effect, 100 complete control)
Procedure, shortened: as §1

[19] = test system: horseweed; assay: Test C postemergence; format: in vivo, Erigeron canadensis; details: 10 days
Procedure, shortened: as §1

[20] = test system: ragweed; assay: Test C postemergence; format: in vivo, Ambrosia artemisiifolia; details: 10 days
Procedure, shortened: as §1

[21] = test system: ryegrass, Italian; assay: Test C preemergence; format: in vivo, Lolium multiflorum; details: 0 to 100 scale (0 no effect, 100 complete control)
Procedure, shortened: as §1

[22] = test system: corn; assay: Test C preemergence; format: in vivo, Zea mays; details: 0 to 100 scale (0 no effect, 100 complete control)
Procedure, shortened: as §1

[23] = test system: ducksalad; assay: Test D flooded paddy test; format: in vivo, Heteranthera limosa; details: 250 g ai/ha, applied to paddy water, visual rating after 13 to 14 days, scale 0 to 100 (0 no effect, 100 complete control)
Procedure, shortened: as §2

[24] = test system: barnyardgrass; assay: Test C postemergence; format: in vivo, Echinochloa crusgalli; details: 10 days
Procedure, shortened: as §1

[25] = test system: ryegrass, Italian; assay: Test C postemergence; format: in vivo, Lolium multiflorum; details: 10 days
Procedure, shortened: as §1

[26] = test system: wheat; assay: Test C postemergence; format: in vivo, Triticum aestivum; details: 10 days
Procedure, shortened: as §1

[27] = test system: corn; assay: Test C postemergence; format: in vivo, Zea mays; details: 10 days
Procedure, shortened: as §1

[28] = test system: ragweed; assay: Test C preemergence; format: in vivo, Ambrosia artemisiifolia; details: 0 to 100 scale (0 no effect, 100 complete control)
Procedure, shortened: as §1

[29] = Preemergence, 500 g ai/ha, visual rating after 10 days
[30] = Test C, preemergence, 125 g ai/ha
[31] = 125 g ai/ha, postemergence, 0 to 100 scale, 0 no effect, 100 complete control
[32] = Postemergence, 500 g ai/ha, visual 0 to 100 scale (0 no effect, 100 complete control)

SMILES: Cc1ccc(-n2cnc(C3(C(F)(F)F)CC3)n2)cc1C(=O)N1C[C@H](C)Oc2c(Cl)cccc21 [Compound 175]
- Plant response rating, Pigweed, Palmer [1, 29]: 100
- Pigweed, Palmer plant response rating [1, 30]: 100
- Plant response rating, Barnyardgrass [2, 29]: 100
- Barnyardgrass plant response rating [2, 30]: 70
- Plant response rating, Rice (Flood) [3]: 0
- Plant response rating, Oat, Wild [4, 31]: 10
- Plant response rating, Oat, Wild [4, 32]: 20
- Plant response rating, Wheat [5, 29]: 20
- Wheat plant response rating [5, 30]: 20
- Plant response rating, Galium [6, 31]: 90
- Plant response rating, Galium [6, 32]: 90
- Plant response rating, Pigweed, Palmer [7, 31]: 90
- Plant response rating, Pigweed, Palmer [7, 32]: 90
- Plant response rating, Foxtail, Green [8, 29]: 100
- Foxtail, Green plant response rating [8, 30]: 90
- Plant response rating, Blackgrass [9, 29]: 10
- Blackgrass plant response rating [9, 30]: 0
- Plant response rating, Soybean [10, 29]: 90
- Soybean plant response rating [10, 30]: 60
- Plant response rating, Soybean [11, 31]: 100
- Plant response rating, Soybean [11, 32]: 100
- Plant response rating, Blackgrass [12, 31]: 10
- Plant response rating, Blackgrass [12, 32]: 50
- Plant response rating, Barnyardgrass (Flood) [13]: 0
- Plant response rating, Sedge, Umbrella (Flood) [14]: 0
- Plant response rating, Oat, Wild [15, 29]: 50
- Oat, Wild plant response rating [15, 30]: 20
- Plant response rating, Foxtail, Green [16, 31]: 30
- Plant response rating, Foxtail, Green [16, 32]: 70
- Plant response rating, Kochia [17, 31]: 90
- Plant response rating, Kochia [17, 32]: 100
- Plant response rating, Kochia [18, 29]: 100
- Kochia plant response rating [18, 30]: 40
- Plant response rating, Horseweed [19, 31]: 80
- Plant response rating, Horseweed [19, 32]: 60
- Plant response rating, Ragweed [20, 31]: 20
- Plant response rating, Ragweed [20, 32]: 70
- Plant response rating, Ryegrass, Italian [21, 29]: 90
- Ryegrass, Italian plant response rating [21, 30]: 80
- Plant response rating, Corn [22, 29]: 20
- Corn plant response rating [22, 30]: 0
- Plant response rating, Ducksalad (Flood) [23]: 0
- Plant response rating, Barnyardgrass [24, 31]: 20
- Plant response rating, Barnyardgrass [24, 32]: 50
- Plant response rating, Ryegrass, Italian [25, 31]: 50
- Plant response rating, Ryegrass, Italian [25, 32]: 60
- Plant response rating, Wheat [26, 31]: 10
- Plant response rating, Wheat [26, 32]: 10
- Plant response rating, Corn [27, 31]: 0
- Plant response rating, Corn [27, 32]: 20
- Plant response rating, Ragweed [28, 29]: 70
- Ragweed plant response rating [28, 30]: 20
